Assay results taken from publication PMC11989212, “Experimental Conditions to Retrieve Intrinsic Cooperativity α Directly from Single Binding Assay Data Exemplified by the Ternary Complex Formation of FKBP12, MAPRE1 and Macrocyclic Molecular Glues” (International Journal of Molecular Sciences, 2025).
Where two headings read alike, the source gives them in different places.

How the values were obtained:
[1] = biological target: FKBP12 in the presence of MAPRE1 (Homo sapiens, UniProt P62942+Q15691); test: Spectral shift target engagement assay, binding to FKBP12 in the presence of 10 μM MAPRE1 (ternary)
Chain of FKBP12 in the presence of MAPRE1 (P62942 whole entry): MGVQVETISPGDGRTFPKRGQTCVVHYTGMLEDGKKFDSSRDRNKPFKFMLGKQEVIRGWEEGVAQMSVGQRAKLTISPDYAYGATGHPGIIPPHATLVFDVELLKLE
Chain of FKBP12 in the presence of MAPRE1 (Q15691 whole entry): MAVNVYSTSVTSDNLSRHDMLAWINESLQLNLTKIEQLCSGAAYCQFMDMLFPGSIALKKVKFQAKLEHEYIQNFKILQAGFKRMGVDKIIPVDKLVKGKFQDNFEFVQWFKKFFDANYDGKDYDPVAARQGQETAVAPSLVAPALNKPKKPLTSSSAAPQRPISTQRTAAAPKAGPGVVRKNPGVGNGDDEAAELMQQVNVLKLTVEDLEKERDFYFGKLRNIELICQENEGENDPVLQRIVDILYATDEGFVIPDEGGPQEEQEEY
Source text: Our method of choice is the spectral shift method, which monitors binding events on the target isothermally and in equilibrium via an environment-sensitive near-infrared fluorophore. In the case of target engagement, either the proximity of the ligand towards the dye or structural changes occurring in the target as a result of binding lead to a change in the chemical environment of the fluorophore. Those changes affect the physiochemical properties of the reporter fluorophore and translate into either blue or red shifts (or peak broadening) of emission peaks upon ligand binding, which can be sensitively monitored by simultaneously recording the fluorescence at two wavelengths (i.e., at 650 nm and 670 nm). Calculating the ratio between the two fluorescence channels then allows to monitor subtle emission shifts that occur as a result of target engagement. Affinity measurements can then be performed by recording the spectral shift as a function of ligand concentration.
Binding studies through FKBP12: To monitor the binding of R,--SLF-11 by the stronger binding FKBP12 in the absence and in the presence of 10 μM MAPRE1 via %Cbound, binary and %Cbound, ternary, respectively, the concentration of reversibly NTA-labeled FKBP12 was limited to [Ctot] = 40 nM. […] In contrast to the experimental setup in the previous two binding experiments with monitoring through the weaker binding protein MAPRE1, where the applied protein concentrations were optimally chosen, this is not the case for the binding experiment through the stronger binder FKBP12. First of all, the applied excess of T with [Ttot] = 10 μM is roughly 20000-fold off of the proposed 100 times KT,1 threshold, which would correspond to 180 mM. Only under such excess conditions of T can the equilibrium of forming TL under the constraint that all ligand L is bound to T be reached to ensure that [Ltot] approaches the “ligand” concentration [TL]. […] If KC,2 is sufficiently high, the 20 nM deviation to correct for the protein concentration could be neglected. However, the resulting calculated value for KC,2 is 0.023 nM, accounting for the cooperativity α = 10,405 and KC,1 = 234 nM as derived by the MAPRE1 experiment. This value is far below the applied protein concentration of [Ctot] = 40 nM and makes it infeasible to estimate KC,2 from the EC50 of the %Cbound, ternary curve. Consequently, the EC50 shifts, meaning the apparent cooperativity, from monitoring the binding by the stronger binding protein C are diverging from the underlying intrinsic cooperativity α. […] The deviation of calculated (254 nM/24.2 nM = 10.5) and measured apparent cooperativity (254 nM/66 nM = 3.8) can be explained by a negative cooperativity induced by the His6-NTA tag of FKBP12. Studies to lower [Ctot] and identify a better position for the spectral shift tag on FKBP12 are ongoing (Figure 6a).
His-tagged FKBP12 was labeled using the His-Tag Labeling Kit RED-tris-NTA 2nd Generation (MO-L018; NanoTemper Technologies GmbH). The affinity between NTA dye and the His-tag of FKBP12 was determined as 7 nM. MAPRE1 was labeled using the Protein Labeling Kit RED-NHS 2nd Generation (MO-L011; NanoTemper Technologies GmbH). In brief, 10 µM of MAPRE1 was incubated with a 3-fold molar excess of fluorophore for 30 min. The unreacted fluorophore was removed by performing a size exclusion purification (B-column). Collecting the protein fraction yielded 1.8 µM labeled MAPRE1, with a degree of labeling of 0.8, as determined on a Nanodrop.
A 1:2 dilution series of all compounds (starting from the 10 mM stock concentration) was prepared in pure DMSO. Each concentration was diluted 25-fold with assay buffer (20 mM HEPES, pH 7.4, 150 mM NaCl, 1 mM DTT (all from Carl Roth, Karlsruhe, Germany), and 0.01% Pluronic F-127 (Sigma Aldrich, Taufkirchen, Germany)). Next, 10 µL from each of the prepared ligand dilutions was transferred into an empty well on a Dianthus Microwell Plate (DI-P001A). […]

[2] = Precipitation seen in the spectral shift titration; format: physicochemical; details: assay buffer, high concentrations
Procedure: Therefore, measurements from the highest concentration samples had to be removed, which impaired the determination of the interpolation curve. Moreover, the signal is much smaller compared to the other studied ligands. […] This is a deviation from the theoretically found true value of 1985 nM − 2.5 nM = 1982.5 nM. The KT,2 is 2% below the EC50 value of the %Tbound, ternary curve. The apparent cooperativity of 460,000 nM/1985 nM = 232 is still below the cooperativity α of 460,000 nM/1941 = 237 (Figure 10b).
A 1:2 dilution series of all compounds (starting from the 10 mM stock concentration) was prepared in pure DMSO. Each concentration was diluted 25-fold with assay buffer (20 mM HEPES, pH 7.4, 150 mM NaCl, 1 mM DTT (all from Carl Roth, Karlsruhe, Germany), and 0.01% Pluronic F-127 (Sigma Aldrich, Taufkirchen, Germany)). Next, 10 µL from each of the prepared ligand dilutions was transferred into an empty well on a Dianthus Microwell Plate (DI-P001A). […] For all interactions measured via FKBP12, the target was prepared at a final concentration of 40 nM, supplemented with 5 nM NTA fluorophore. […] The resulting spectral shift signal (Ratio 670 nm/650 nm) was plotted against compound concentration and analyzed in the DI.Screening Analysis software, version 2.1.1.

## C=C1CCN2C(=O)COc3cccc(c3)C(CCc3ccc(OC)c(OC)c3)OC(=O)C3CCCCN3C(=O)C(=O)C(C)(C)COC(=O)C(CN)NC(=O)C2C1 (stereo not drawn) [R,S-SLF-7]
[1]; 40 nM FKBP12-NTA, 10 μM MAPRE1, read-out: EC50 of the %Cbound, ternary curve (measured)
  EC50: 0.11 µM
[1]; calculated with the model using α from MAPRE1 binding, read-out: calc EC50 of the %Cbound, ternary curve
  EC50: 0.048 µM
[2]
  precipitation: precipitation at high concentrations
